Measurements taken from ChEMBL document CHEMBL1121424, “Orally active cephalosporins and penicillins” (J Med Chem, 1980).
In brackets after ≈: the same amount, converted by molar mass.

How the values were obtained:
[1] = Tested for the peak time in mice following 40 mg/kg oral dose of cephalosporin; assay type: ADME, organism-based; parameters: dose 40 mg/kg, route oral; details: mouse, in vivo, read-out: Peak time (converted)
Enterobacter cloacae = experiment: Tested for inhibition of visible growth of Enterobacter cloacae; assay type: functional
Klebsiella aerogenes = experiment: Tested for inhibition of visible growth of Enterobacter aerogenes; assay type: functional
Escherichia coli [2] = experiment: Tested for inhibition of visible growth of Escherichia coli; assay type: functional
Escherichia coli [3] = experiment: Tested for the antimicrobial activity against Escherichia coli in mice perorally; assay type: functional; details: po
Escherichia coli [4] = experiment: Tested for the antimicrobial activity against Escherichia coli in mice; assay type: functional
[5] = (§1) Tested for the antimicrobial activity against Salmonella schottmuelleri in mice; assay type: functional
[6] = as §1; assay type: functional; remark: listed apart in the source
Staphylococcus aureus [7] = experiment: Tested for the antimicrobial activity against Staphylococcus aureus; assay type: functional
Streptococcus pneumoniae [8] = experiment: (§2) Tested for the antimicrobial activity against Streptococcus pneumoniae in mice; assay type: functional
Streptococcus pneumoniae [9] = experiment: as §2; assay type: functional; remark: listed apart in the source
Streptococcus pyogenes [10] = experiment: (§3) Tested for the antimicrobial activity against Streptococcus pyogenes in mice; assay type: functional
Streptococcus pyogenes [11] = experiment: as §3; assay type: functional; remark: listed apart in the source
Mus musculus [12] = species: Mus musculus; experiment: Tested for the antimicrobial activity against Staphylococcus aureus, benzyl-penicillin resistant in mice, perorally; assay type: functional; details: po
Staphylococcus aureus [13] = experiment: Tested for the antimicrobial activity against Staphylococcus aureus, benzyl-penicillin sensitive in mice, perorally; assay type: functional; details: po
Proteus mirabilis = experiment: Tested for inhibition of visible growth of Proteus mirabilis; assay type: functional
[14] = Tested for inhibition of visible growth of Salmonella schottmuelleri; assay type: functional
Staphylococcus aureus [15] = experiment: Tested for inhibition of visible growth of Staphylococcus aureus, benzyl-penicillin sensitive; assay type: functional
Streptococcus pyogenes [16] = experiment: Tested for inhibition of visible growth of Streptococcus pyogenes; assay type: functional
Enterococcus faecalis = experiment: Tested for inhibition of visible growth of Streptococcus faecalis; assay type: functional
Streptococcus pneumoniae [17] = experiment: Tested for inhibition of visible growth of Streptococcus pneumoniae; assay type: functional
Klebsiella pneumoniae = experiment: Tested for inhibition of visible growth of Klebsiella pneumoniae; assay type: functional
Staphylococcus aureus [18] = experiment: Tested for inhibition of visible growth of Staphylococcus aureus; assay type: functional
[19] = tested for the peak time in mice following 6.9 mg/kg, oral (administered as the hydrochloride salt dissolved in H2O); assay type: ADME, organism-based; parameters: dose 6.9 mg/kg, route oral; details: mouse, in vivo, read-out: Peak time (converted)
[20] = Tested for the peak time in mice following 11.8 mg/kg, oral (administered as the sodium salt dissolved in H2O); assay type: ADME, organism-based; parameters: dose 11.8 mg/kg, route oral; details: mouse, in vivo, read-out: Peak time (converted)
Mus musculus [21] = experiment: Tested for the antimicrobial activity against […], benzyl-penicillin sensitive in mice, subcutaneously; assay type: functional; details: sc
Mus musculus [22] = species: Mus musculus; experiment: Tested for the antimicrobial activity against Staphylococcus aureus, benzyl-penicillin sensitive in mice, perorally; details: po
Mus musculus [23] = species: Mus musculus; experiment: Tested for the antimicrobial activity against Staphylococcus aureus (M202) in mice, perorally; assay type: functional; details: po
Mus musculus [24] = experiment: Tested for the antimicrobial activity against Staphylococcus aureus (M202) in mice, subcutaneously; assay type: functional; details: sc
Mus musculus [25] = species: Mus musculus; experiment: Tested for the antimicrobial activity against Streptococcus pneumoniae (D137) in mice, perorally; assay type: functional; details: po
Mus musculus [26] = experiment: Tested for the antimicrobial activity against Streptococcus pneumoniae (D137) in mice, subcutaneously; assay type: functional; details: sc
Mus musculus [27] = experiment: Tested for the antimicrobial activity against Streptococcus pneumoniae (D815) in mice, subcutaneously; assay type: functional; details: sc
Mus musculus [28] = species: Mus musculus; experiment: Tested for the antimicrobial activity against Streptococcus pneumoniae (D815) in mice, perorally; assay type: functional; details: po
Mus musculus [29] = species: Mus musculus; experiment: Tested for the antimicrobial activity against Streptococcus pyogenes (ST139) in mice, perorally; assay type: functional; details: po
Mus musculus [30] = experiment: Tested for the antimicrobial activity against Streptococcus pyogenes (ST139) in mice, subcutaneously; assay type: functional; details: sc
Mus musculus [31] = species: Mus musculus; experiment: Tested for the antimicrobial activity against Streptococcus pyogenes (St141) in mice, perorally; assay type: functional; details: po
Mus musculus [32] = experiment: Tested for the antimicrobial activity against Streptococcus pyogenes (St141) in mice, subcutaneously; assay type: functional; details: sc
Mus musculus [33] = experiment: Tested for the antimicrobial activity against Staphylococcus aureus (M240) in mice, subcutaneously; assay type: functional; details: sc
Pseudomonas aeruginosa = experiment: Tested for inhibition of visible growth of Pseudomonas aeruginosa; assay type: functional
Mus musculus [34] = species: Mus musculus; experiment: Tested for the antimicrobial activity against Staphylococcus aureus (M240) in mice, perorally; assay type: functional; details: po
in vivo = details: mouse, po, 43 mg/kg
Description: Tested for the peak time in mice following 43 mg/kg oral dose of cephalosporin

Row | MIC (Enterobacter cloacae) | MIC (Klebsiella aerogenes) | MIC (Escherichia coli [2]) | MIC (Proteus mirabilis) | MIC [14] | MIC (Staphylococcus aureus [15]) | MIC (Streptococcus pyogenes [16]) | MIC (Enterococcus faecalis) | MIC (Streptococcus pneumoniae [17]) | MIC (Klebsiella pneumoniae) | MIC (Staphylococcus aureus [18]) | SMILES | ED50 (Escherichia coli [3]) | ED50 (Escherichia coli [4]) | ED50 [5] | ED50 [6] | ED50 (Staphylococcus aureus [7]) | ED50 (Streptococcus pneumoniae [8]) | ED50 (Streptococcus pneumoniae [9]) | ED50 (Streptococcus pyogenes [10]) | ED50 (Streptococcus pyogenes [11]) | further results
1 | 25 µg/mL (≈ 47.9 µM) | 25 µg/mL (≈ 47.9 µM) | 12.5 µg/mL (≈ 24 µM) | > 100 µg/mL | 1.6 µg/mL (≈ 3.07 µM) | 0.2 µg/mL (≈ 0.383 µM) | 0.1 µg/mL (≈ 0.192 µM) | 50 µg/mL (≈ 95.9 µM) | 0.1 µg/mL (≈ 0.192 µM) | 6.2 µg/mL (≈ 11.9 µM) | 3.1 µg/mL (≈ 5.94 µM) | Cc1nnc(SCC2=C(C(=O)O)N3C(=O)C(NC(=O)[C@H](N)c4ccc5c(c4)OCO5)C3SC2)s1 (some centres not stated) | 33.9 mg/kg | 10.6 mg/kg | 40 mg/kg | 8 mg/kg | 0.29 mg/kg | 1.3 mg/kg | 0.79 mg/kg | 0.84 mg/kg | 0.23 mg/kg | Tmax [19]: 30 min; Tmax [20]: 30 min; ED50 (Staphylococcus aureus [13]): 0.8 mg/kg
2 | 6.2 µg/mL (≈ 12.3 µM) | 3.1 µg/mL (≈ 6.13 µM) | 3.1 µg/mL (≈ 6.13 µM) | 25 µg/mL (≈ 49.5 µM) | 0.8 µg/mL (≈ 1.58 µM) | 0.2 µg/mL (≈ 0.396 µM) | 0.05 µg/mL (≈ 0.0989 µM) | 50 µg/mL (≈ 98.9 µM) | 0.1 µg/mL (≈ 0.198 µM) | 3.1 µg/mL (≈ 6.13 µM) | 1.6 µg/mL (≈ 3.16 µM) | Cn1nnnc1SCC1=C(C(=O)O)N2C(=O)C(NC(=O)[C@H](N)c3ccc4c(c3)OCO4)C2SC1 (some centres not stated) | – | 2.1 mg/kg | 16 mg/kg | < 3.1 mg/kg | – | > 10 mg/kg | 0.74 mg/kg | 0.37 mg/kg | 0.14 mg/kg | ED50 (Mus musculus [21]): 0.31 mg/kg; ED50 (Mus musculus [22]): > 2 mg/kg
3 | > 100 µg/mL | > 100 µg/mL | 6.2 µg/mL (≈ 17 µM) | 0.4 µg/mL (≈ 1.09 µM) | 0.4 µg/mL (≈ 1.09 µM) | 0.1 µg/mL (≈ 0.274 µM) | ≤ 0.03 µg/mL | 1.6 µg/mL (≈ 4.38 µM) | ≤ 0.03 µg/mL | 0.8 µg/mL (≈ 2.19 µM) | 100 µg/mL (≈ 274 µM) | CC1(C)S[C@@H]2[C@H](NC(=O)[C@H](N)c3ccc(O)cc3)C(=O)N2[C@H]1C(=O)O [AMOXICILLIN] | – | – | – | – | – | – | – | – | – | ED50 (Mus musculus [23]): 0.62 mg/kg; ED50 (Mus musculus [24]): 0.62 mg/kg; ED50 (Mus musculus [25]): 0.25 mg/kg; ED50 (Mus musculus [26]): 0.14 mg/kg; ED50 (Mus musculus [27]): 0.05 mg/kg; ED50 (Mus musculus [28]): 0.13 mg/kg; ED50 (Mus musculus [29]): 0.073 mg/kg; ED50 (Mus musculus [30]): 0.063 mg/kg; ED50 (Mus musculus [31]): 0.08 mg/kg; ED50 (Mus musculus [32]): 0.06 mg/kg; ED50 (Mus musculus [33]): 0.074 mg/kg; MIC (Pseudomonas aeruginosa): > 100 µg/mL; ED50 (Mus musculus [34]): 0.31 mg/kg
4 | 25 µg/mL (≈ 72 µM) | 25 µg/mL (≈ 72 µM) | 6.2 µg/mL (≈ 17.8 µM) | 12.5 µg/mL (≈ 36 µM) | 3.1 µg/mL (≈ 8.92 µM) | 0.8 µg/mL (≈ 2.3 µM) | 0.4 µg/mL (≈ 1.15 µM) | ≥ 100 µg/mL | 1.6 µg/mL (≈ 4.61 µM) | 3.1 µg/mL (≈ 8.92 µM) | 3.1 µg/mL (≈ 8.92 µM) | CC1=C(C(=O)O)N2C(=O)[C@@H](NC(=O)[C@H](N)c3ccccc3)[C@H]2SC1 [CEPHALEXIN ANHYDROUS] | – | – | – | – | – | – | – | – | – | Tmax (in vivo): 15 min

Row | SMILES | MIC (Enterobacter cloacae) | MIC (Klebsiella aerogenes) | MIC (Escherichia coli [2]) | MIC (Proteus mirabilis) | MIC [14] | MIC (Staphylococcus aureus [15]) | MIC (Streptococcus pyogenes [16]) | MIC (Enterococcus faecalis) | MIC (Streptococcus pneumoniae [17]) | MIC (Klebsiella pneumoniae) | MIC (Staphylococcus aureus [18]) | ED50 (Escherichia coli [3]) | ED50 (Escherichia coli [4]) | ED50 [5] | ED50 [6] | ED50 (Staphylococcus aureus [7]) | ED50 (Streptococcus pneumoniae [8]) | ED50 (Streptococcus pneumoniae [9]) | ED50 (Streptococcus pyogenes [10]) | ED50 (Streptococcus pyogenes [11]) | further results
5 | CC1=C(C(=O)O)N2C(=O)C(NC(=O)[C@H](N)c3ccc4c(c3)OCO4)C2SC1 (some centres not stated) | > 100 µg/mL | > 100 µg/mL | 25 µg/mL (≈ 63.9 µM) | > 100 µg/mL | 12.5 µg/mL (≈ 31.9 µM) | 0.4 µg/mL (≈ 1.02 µM) | 0.8 µg/mL (≈ 2.04 µM) | > 100 µg/mL | 1.6 µg/mL (≈ 4.09 µM) | 25 µg/mL (≈ 63.9 µM) | 3.1 µg/mL (≈ 7.92 µM) | 28 mg/kg | 15 mg/kg | 37 mg/kg | 33 mg/kg | 0.45 mg/kg | 19 mg/kg | 26 mg/kg | 1 mg/kg | 1.4 mg/kg | Tmax [1]: 10 min; ED50 (Mus musculus [12]): 3.1 mg/kg; ED50 (Staphylococcus aureus [13]): 0.61 mg/kg
